Measured values as given in ChEMBL document CHEMBL4622951, “Chemical constituents of Callistemon citrinus from Egypt and their antiausterity activity against PANC-1 human pancreatic cancer cell line” (2020).
Activity calls are given as the source filed them. No cut-off for these calls is given here.

Experiments:
[1] = tested on: PANC-1; experiment: Induction of apoptosis in human PANC1 cells assessed as decrease in membrane integrity at 1 nM incubated for 24 hrs by ethidium bromide and acridine orange based phase contrast microscopy analysis; type: functional, cell-based
[2] = tested on: PANC-1; experiment: Inhibition of cell migration of human PANC1 cells at 10 uM measured after 12 hrs by wound healing assay (reference value: 73 %); type: functional; details: PANC-1, 12 h
[3] = tested on: PANC-1; experiment: Inhibition of cell migration of human PANC1 cells at 20 uM measured after 12 hrs by wound healing assay (reference value: 73 %); type: functional; details: PANC-1, 12 h
[4] = tested on: PANC-1; experiment: Inhibition of cell migration of human PANC1 cells at 10 uM measured after 24 hrs by wound healing assay (reference value: 46 %); type: functional; details: PANC-1, 24 h
[5] = tested on: PANC-1; experiment: Inhibition of cell migration of human PANC1 cells at 20 uM measured after 24 hrs by wound healing assay (reference value: 46 %); type: functional; details: PANC-1, 24 h
[6] = tested on: PANC-1; experiment: Inhibition of cell migration of human PANC1 cells at 10 uM measured after 36 hrs by wound healing assay (reference value: 100 %); type: functional; details: PANC-1, 36 h
[7] = tested on: PANC-1; experiment: Inhibition of cell migration of human PANC1 cells at 20 uM measured after 36 hrs by wound healing assay (reference value: 100 %); type: functional; details: PANC-1, 36 h
[8] = tested on: PANC-1; experiment: Inhibition of cell migration of human PANC1 cells at 10 uM measured after 48 hrs by wound healing assay (reference value: 100 %); type: functional; details: PANC-1, 48 h
[9] = tested on: PANC-1; experiment: Inhibition of cell migration of human PANC1 cells at 20 uM measured after 48 hrs by wound healing assay (reference value: 100 %); type: functional; details: PANC-1, 48 h
[10] = tested on: PANC-1; experiment: Inhibition of cell migration of human PANC1 cells measured upto 48 hrs by wound healing assay; type: functional, cell-based
[11] = tested on: PANC-1; experiment: Inhibition of colony formation of human PANC1 cells at 2.5 to 10 uM incubated for 24 hrs followed by compound washout and subsequent incubation for 10 days by crystal violet staining based assay; type: functional, cell-based
[12] = tested on: PANC-1; experiment: Cytotoxicity against human PANC1 cells in nutrient-deprived medium; type: functional

For `CC(C)CC(=O)c1c(O)c2c(c([C@H](C3=C(O)C(C)(C)C(=O)C(C)(C)C3=O)C(C)C)c1O)O[C@]1(C)C=C[C@@H](C(C)C)C[C@H]21`, the Activity [1] was “Active”, the inhibition at 10 µM [2] was 87% and the inhibition at 20 µM [3] was 96%. The inhibition at 10 µM [4] was 76%, the inhibition at 20 µM [5] was 94% and the inhibition at 10 µM [6] was 67%. It also gave an inhibition at 20 µM [7] of 89%, an inhibition at 10 µM [8] of 65% and an inhibition at 20 µM [9] of 80%. The inhibition [10] was “Dose-dependent effect” and the inhibition [11] was “Active”.
Work on `C[C@H]1[C@H](C)CC[C@]2(C(=O)O)CC[C@]3(C)C(=CC[C@@H]4[C@@]5(C)CC[C@H](O)C(C)(C)[C@@H]5CC[C@]43C)[C@H]12` [URSOLIC ACID] yielded a PC50 [12] of 13.7 µM.
For `COc1cc(C[C@H]2C(=O)OC[C@@H]2Cc2ccc(OC)c(OC)c2)ccc1O` [ARCTIGENIN], the PC50 [12] was 0.7 µM.
`C[C@H]1[C@H](C)CC[C@]2(CO)CC[C@]3(C)C(=CC[C@@H]4[C@@]5(C)CC[C@H](O)C(C)(C)[C@@H]5CC[C@]43C)[C@H]12` [UVAOL] showed a PC50 [12] of 5.2 µM.
`CC1(C)CC[C@]2(CO)CC[C@]3(C)C(=CC[C@@H]4[C@@]5(C)CC[C@H](O)C(C)(C)[C@@H]5CC[C@]43C)[C@@H]2C1` [ERYTHRODIOL] showed a PC50 [12] of 0.2 µM.
In the case of `CC(=O)[C@@H]1CC[C@]2(C(=O)O)CC[C@]3(C)[C@H](CC[C@@H]4[C@@]5(C)CC[C@H](O)C(C)(C)[C@@H]5CC[C@]43C)[C@@H]12` [PLATANIC ACID], the PC50 [12] is reported as 14.2 µM.
Work on `C[C@@H]1CC[C@@]23CC[C@]4(C)[C@@](C=C[C@@H]5[C@@]6(C)CC[C@H](O)C(C)(C)[C@@H]6CC[C@]54C)(OC2=O)C3[C@H]1C` (stereo not given in full) yielded a PC50 [12] of 0.4 µM.
Compound `CC1(C)CC[C@]2(C(=O)O)CC[C@]3(C)C(=CC[C@@H]4[C@@]5(C)CC[C@H](O)C(C)(C)[C@@H]5CC[C@]43C)[C@@H]2C1` [OLEANOLIC_ACID] has a PC50 [12] of 20.5 µM.
Work on `C=C(C)[C@@H]1CC[C@]2(C(=O)O)CC[C@]3(C)[C@H](CC[C@@H]4[C@@]5(C)CC[C@H](O)C(C)(C)[C@@H]5CC[C@]43C)[C@@H]12` [BETULINIC ACID] yielded a PC50 [12] of 15.2 µM.
With `C=C(C)[C@@H]1CC[C@]2(CO)CC[C@]3(C)[C@H](CC[C@@H]4[C@@]5(C)CC[C@H](O)C(C)(C)[C@@H]5CC[C@]43C)[C@@H]12` [BETULIN] the PC50 [12] was 0.7 µM.
